Data set [1] has as its system J774. Briefly: Antiinflammatory activity in mouse J774 cells assessed as inhibition of LPS/IFNgamma-induced NO production incubated for 24 hrs by Griess method. The format is functional, cell-based. To be noted: J774, 24 h. (Nitrite, measured by Griess reagent, commonly stands in for NO production.)
The nature of data set [2]: Cytotoxicity against mouse J774 cells assessed as reduction in cell viability after 72 hrs by Alamar Blue assay. The format is cell-based. In general terms: Resazurin is reduced to fluorescent resorufin, in cell work by metabolically active cells.
Data set [3] concerns J774. Briefly: Antiinflammatory activity in mouse J774 cells assessed as LPS/IFNgamma-induced IL-1beta level at 6.3 uM incubated for 24 hrs by ELISA (reference value: 9.6 to 26.1 pg/mg). The format is functional. Background: ELISA stands for enzyme-linked immunosorbent assay.
Data set [4] concerns J774. Briefly: Antiinflammatory activity in mouse J774 cells assessed as LPS/IFNgamma-induced IL-1beta level at 25 uM incubated for 24 hrs by ELISA (reference value: 9.6 to 26.1 pg/mg). The format is functional.
Data set [5] deals with J774. The data set is described as follows: Antiinflammatory activity in mouse J774 cells assessed as LPS/IFNgamma-induced IL-1beta level at 100 uM incubated for 24 hrs by ELISA (reference value: 9.6 to 26.1 pg/mg). The format is functional.
Data set [6] deals with J774. Briefly: Antiinflammatory activity in mouse J774 cells assessed as inhibition of LPS/IFNgamma-induced IL-1beta level incubated for 24 hrs by ELISA relative to control. The format is functional.
The subject of data set [7] is J774. Briefly: Antiinflammatory activity in mouse J774 cells assessed as inhibition of LPS/IFNgamma-induced IL-1beta level at 10 uM incubated for 24 hrs by ELISA relative to control. The format is functional. To be noted: J774, 24 h.

For the compound `Cc1cc(=O)c2c(O)cc(O[C@@H]3O[C@H](CO)[C@@H](O)[C@H](O)[C@H]3O)cc2o1` [UNDULATOSIDE A], the IC50 in the data set on J774 [1] was 51.2 µM. Moreover, the CC50 at 72 h in data set [2] turned out to be 191 µM. Also, the results for the Activity in the data set on J774 [3], in the data set with J774 [4] and with J774 [5] were 14.5 pg/mg, 9.5 pg/mg and 1.5 pg/mg, respectively. Besides, in the data set on J774 [6], the Imax stood at 89.6%.

Turning to `C/C1=C/C[C@@H]2[C@H](CC2(C)C)[C@@](O)(CO)CC[C@@H]1O`, in the data set on J774 [1], the IC50 is 30.3 µM. The CC50 at 72 h in data set [2] was found to be 194 µM. The values for the Activity in the data set with J774 [3], in the data set with J774 [4] and in the data set on J774 [5] were 28.6 pg/mg, 14 pg/mg and 1.5 pg/mg, respectively. In addition, the Imax in the data set with J774 [6] is reported as 92.5%.

As to `O=c1cc(CO)oc2cc(O)cc(O)c12` [CNIDIMOL C], the IC50 in the data set on J774 [1] was 22.4 µM. Further, the CC50 at 72 h in data set [2] was 256 µM. Moreover, the Activity stood at 15.7 pg/mg in the data set with J774 [3], 10.5 pg/mg with J774 [4] and 3.9 pg/mg in the data set on J774 [5]. Further, the Imax in the data set with J774 [6] worked out at 72.7%.

With `C=C1CC[C@@H]2[C@H](CC2(C)C)[C@@](O)(CO)CC[C@@H]1O`, in the data set on J774 [1], the IC50 turned out to be 17.8 µM. Moreover, the CC50 at 72 h in data set [2] worked out at 193 µM. In addition, the Activity is 14.3 pg/mg with J774 [3], 7 pg/mg in the data set with J774 [4] and 0.7 pg/mg in the data set on J774 [5]. The Imax in the data set with J774 [6] turned out to be 93%.

With `C[C@@H]1C[C@H]2[C@@H]3CCC4=CC(=O)C=C[C@]4(C)[C@@]3(F)[C@@H](O)C[C@]2(C)[C@@]1(O)C(=O)CO` [DEXAMETHASONE], the IC50 in the data set on J774 [1] was determined as 5.2 µM. In addition, in the data set on J774 [7], the inhibition at 10 µM turned out to be 87.1%.

Regarding `CC[C@@H](CO)C(=O)OC[C@@H]1O[C@H](OCc2cc(=O)c3c(O)cc(O)cc3o2)[C@@H](O)[C@H](O)[C@H]1O`, the IC50 in the data set on J774 [1] turned out to be 25.3 µM. In data set [2], the CC50 at 72 h stood at 209 µM. For the same compound, the Activity is on record as 8.4 pg/mg with J774 [3], 8.6 pg/mg in the data set with J774 [4] and 0.3 pg/mg in the data set on J774 [5]. Also, in the data set on J774 [6], the Imax stood at 96.2%.

`CN(C)c1ccc(C(=C2C=CC(=[N+](C)C)C=C2)c2ccc(N(C)C)cc2)cc1` [GENTIAN VIOLET]: the CC50 at 72 h in data set [2] turned out to be 0.8 µM.

With `O=c1cc(CO[C@@H]2O[C@H](CO)[C@@H](O)[C@H](O)[C@H]2O)oc2cc(O)cc(O)c12` [MONNIERISIDE A], the IC50 with J774 [1] was determined as 66.3 µM. Besides, the CC50 at 72 h in data set [2] worked out at 201 µM. Besides, the Activity in the data set on J774 [3] is 14.6 pg/mg; with J774 [4], 9.1 pg/mg; in the data set with J774 [5], 2 pg/mg. Besides, the Imax with J774 [6] stood at 85.5%.

As to `CC(=O)OC[C@@]1(O)CC[C@H]2O[C@@]2(C)CC[C@@H]2[C@@H]1CC2(C)C`, in the data set on J774 [1], the IC50 came to 52.2 µM. In addition, the CC50 at 72 h in data set [2] came out at 273 µM. Moreover, the Activity with J774 [3] amounted to 10.2 pg/mg; in the data set with J774 [4], 6.5 pg/mg; in the data set on J774 [5], 2.4 pg/mg. The Imax with J774 [6] turned out to be 75%.

Consider `C/C=C(/C)C(=O)OCC(O)(COC(=O)/C(C)=C\C)[C@H](OC(=O)/C(C)=C\C)[C@@H](COC(C)=O)OC(C)=O` (some centres not stated), for which, in the data set with J774 [1], the IC50 was determined as 28.2 µM. In addition, the CC50 at 72 h in data set [2] turned out to be 198 µM. The Activity was determined as 7.3 pg/mg with J774 [3], 9.3 pg/mg in the data set with J774 [4] and 1.1 pg/mg in the data set with J774 [5]. Also, the Imax in the data set on J774 [6] is 88.5%.

For the compound `C/C=C(/C)C(=O)OC[C@@H](OC(C)=O)[C@@H](OC(=O)/C(C)=C\C)C(O)(COC(=O)/C(C)=C\C)COC(=O)/C(C)=C\C`, the IC50 in the data set with J774 [1] worked out at 34.2 µM. In addition, the CC50 at 72 h in data set [2] was 206 µM. Besides, the Activity in the data set with J774 [3] is 15.6 pg/mg; with J774 [4], 14.6 pg/mg; in the data set on J774 [5], 3.8 pg/mg. The Imax in the data set with J774 [6] is 80.6%.

As usually defined, the IC50 is the point on the concentration scale where inhibition reaches its midpoint. Broadly, the CC50 is the concentration at which the toxic effect on the cells reaches its halfway point. By inhibition is commonly meant how much of the control response was suppressed.

Values taken from ChEMBL document CHEMBL4627391, “Bioactive Compounds from the Aerial Parts of Evolvulus linarioides” (J Nat Prod, 2020).
